Columns and labels:
[1] = Half life in human liver microsomes at 1 uM by LC-MS/MS analysis
[2] = target: T1, CYP19 (Homo sapiens, UniProt P11511); test: Inhibition of CYP19 in human placental microsomes at 500 nM using [1beta-3H]androstenedione as substrate; design: species or system Placenta; conditions: probe [1beta-3H]androstenedione
T1 sequence (P11511 whole entry): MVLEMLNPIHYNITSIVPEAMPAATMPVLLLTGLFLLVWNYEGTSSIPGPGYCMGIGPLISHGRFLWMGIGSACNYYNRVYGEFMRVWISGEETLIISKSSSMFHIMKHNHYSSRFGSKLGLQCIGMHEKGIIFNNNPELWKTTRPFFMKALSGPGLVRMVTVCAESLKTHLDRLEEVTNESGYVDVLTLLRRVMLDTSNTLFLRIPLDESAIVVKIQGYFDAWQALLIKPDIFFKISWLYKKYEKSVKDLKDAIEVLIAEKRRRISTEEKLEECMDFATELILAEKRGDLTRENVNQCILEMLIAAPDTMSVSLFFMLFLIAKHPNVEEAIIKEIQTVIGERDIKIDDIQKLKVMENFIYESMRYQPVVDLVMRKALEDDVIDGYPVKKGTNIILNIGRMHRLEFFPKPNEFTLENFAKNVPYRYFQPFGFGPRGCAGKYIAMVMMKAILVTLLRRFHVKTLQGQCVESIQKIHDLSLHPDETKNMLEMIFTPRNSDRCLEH

[3] = target: T2, CYP11B1 (Homo sapiens, UniProt P15538); test: Inhibition of human CYP11B1 expressed in hamster V79MZh cells using deoxycorticosterone as substrate at 500 nM; type: cell-based; conditions: hamster V79MZh cells expressing human CYP11B1, probe deoxycorticosterone
T2 sequence (P15538 whole entry): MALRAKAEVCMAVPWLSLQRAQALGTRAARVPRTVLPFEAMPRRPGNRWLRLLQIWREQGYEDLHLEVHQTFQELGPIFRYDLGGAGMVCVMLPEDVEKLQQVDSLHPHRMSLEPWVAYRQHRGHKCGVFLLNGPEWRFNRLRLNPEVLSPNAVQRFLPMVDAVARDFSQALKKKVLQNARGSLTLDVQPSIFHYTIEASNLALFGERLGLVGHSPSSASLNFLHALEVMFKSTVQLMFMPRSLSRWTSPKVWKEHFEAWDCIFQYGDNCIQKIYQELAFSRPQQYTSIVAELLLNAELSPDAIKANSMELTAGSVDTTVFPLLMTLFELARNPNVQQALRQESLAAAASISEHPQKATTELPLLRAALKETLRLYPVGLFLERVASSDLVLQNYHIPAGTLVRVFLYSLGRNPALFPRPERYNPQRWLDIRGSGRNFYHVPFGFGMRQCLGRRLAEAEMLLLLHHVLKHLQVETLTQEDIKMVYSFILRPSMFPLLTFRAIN

[4] = target: T3, Cytochrome P450 11B2, mitochondrial (Homo sapiens, UniProt P19099); test: Inhibition of human CYP11B2 expressed in hamster V79MZh cells using deoxycorticosterone as substrate at 500 nM; type: cell-based
T3 sequence (P19099 whole entry): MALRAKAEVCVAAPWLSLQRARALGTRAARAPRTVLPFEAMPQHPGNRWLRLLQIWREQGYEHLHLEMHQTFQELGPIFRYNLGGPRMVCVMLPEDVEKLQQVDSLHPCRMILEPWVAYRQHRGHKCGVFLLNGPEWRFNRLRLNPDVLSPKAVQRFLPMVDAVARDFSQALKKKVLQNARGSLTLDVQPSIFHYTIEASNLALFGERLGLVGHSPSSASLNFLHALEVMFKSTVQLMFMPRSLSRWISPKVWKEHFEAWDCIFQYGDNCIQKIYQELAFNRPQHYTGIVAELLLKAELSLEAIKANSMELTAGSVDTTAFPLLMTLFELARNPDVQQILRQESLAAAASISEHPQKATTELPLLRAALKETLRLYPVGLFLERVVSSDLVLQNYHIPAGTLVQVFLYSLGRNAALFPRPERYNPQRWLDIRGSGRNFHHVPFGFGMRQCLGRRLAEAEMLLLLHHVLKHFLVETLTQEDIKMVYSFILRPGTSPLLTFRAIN

[5] = target: T4, CYP17 (Homo sapiens, UniProt P05093); test: Inhibition of human CYP17 expressed in Escherichia coli co-expressing NADPH-P450 reductase at 2 uM using progesterone as substrate; conditions: probe progesterone
T4 sequence (P05093 whole entry): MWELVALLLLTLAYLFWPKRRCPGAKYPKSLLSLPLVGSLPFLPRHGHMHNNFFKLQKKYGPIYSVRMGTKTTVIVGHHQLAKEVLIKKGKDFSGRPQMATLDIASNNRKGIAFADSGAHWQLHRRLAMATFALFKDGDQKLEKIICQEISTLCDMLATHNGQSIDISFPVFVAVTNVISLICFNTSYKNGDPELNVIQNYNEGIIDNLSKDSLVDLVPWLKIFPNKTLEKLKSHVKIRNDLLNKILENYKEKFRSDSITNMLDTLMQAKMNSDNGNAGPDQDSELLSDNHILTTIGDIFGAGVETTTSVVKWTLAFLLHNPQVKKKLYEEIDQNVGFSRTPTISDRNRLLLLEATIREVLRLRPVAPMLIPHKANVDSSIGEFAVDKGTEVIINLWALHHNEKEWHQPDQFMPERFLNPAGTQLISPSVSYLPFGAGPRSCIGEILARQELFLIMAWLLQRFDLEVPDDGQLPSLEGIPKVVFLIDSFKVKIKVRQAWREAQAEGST

[6] = target: T3, Cytochrome P450 11B2, mitochondrial
[7] = target: T5, Cytochrome P450 11B1, mitochondrial (Homo sapiens, UniProt P15538)
T5 sequence (P15538 whole entry): T2 sequence (P15538 whole entry)

[8] = target: Cytochrome P450 2C9 (Homo sapiens, UniProt P11712); test: Inhibition of CYP2C9 using recombinant human CYP enzyme at a single time point by LC-MS/MS analysis
Cytochrome P450 2C9, sequence (P11712 whole entry): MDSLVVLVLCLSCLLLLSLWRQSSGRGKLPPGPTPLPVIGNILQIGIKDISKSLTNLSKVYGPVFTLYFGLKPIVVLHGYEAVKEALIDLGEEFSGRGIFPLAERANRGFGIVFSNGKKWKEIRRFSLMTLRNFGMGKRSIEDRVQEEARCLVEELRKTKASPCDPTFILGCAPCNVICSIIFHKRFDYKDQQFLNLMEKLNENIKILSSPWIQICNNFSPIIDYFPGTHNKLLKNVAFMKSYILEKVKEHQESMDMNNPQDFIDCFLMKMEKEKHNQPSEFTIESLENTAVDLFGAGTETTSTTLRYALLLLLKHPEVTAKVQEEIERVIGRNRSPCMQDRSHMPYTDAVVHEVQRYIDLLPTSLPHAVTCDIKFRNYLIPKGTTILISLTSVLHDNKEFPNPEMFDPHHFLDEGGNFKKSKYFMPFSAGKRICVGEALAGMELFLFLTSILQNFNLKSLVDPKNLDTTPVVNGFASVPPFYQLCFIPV

[9] = Intrinsic clearance in human liver microsomes at 1 uM by LC-MS/MS analysis; conditions: read-out: CLH
[10] = target: Cytochrome P450 2C19 (Homo sapiens, UniProt P33261); test: Inhibition of CYP2C19 using recombinant human CYP enzyme at a single time point by LC-MS/MS analysis
Cytochrome P450 2C19, sequence (P33261 whole entry): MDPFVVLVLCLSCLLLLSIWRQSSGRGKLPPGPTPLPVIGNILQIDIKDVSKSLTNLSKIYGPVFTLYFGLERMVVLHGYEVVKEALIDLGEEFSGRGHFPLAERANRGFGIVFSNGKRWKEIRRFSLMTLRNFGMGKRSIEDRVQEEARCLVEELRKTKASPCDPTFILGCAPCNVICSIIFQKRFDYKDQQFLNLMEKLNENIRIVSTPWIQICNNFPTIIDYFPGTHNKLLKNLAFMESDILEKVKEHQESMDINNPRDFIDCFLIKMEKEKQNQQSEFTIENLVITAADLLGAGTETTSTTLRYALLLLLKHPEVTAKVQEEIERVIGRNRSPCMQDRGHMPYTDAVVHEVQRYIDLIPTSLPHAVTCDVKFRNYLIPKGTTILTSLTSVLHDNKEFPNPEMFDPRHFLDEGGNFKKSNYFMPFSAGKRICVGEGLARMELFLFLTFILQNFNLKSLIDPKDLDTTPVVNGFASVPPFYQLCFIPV

[11] = target: T6, Cytochrome P450 1A2 (Homo sapiens, UniProt P05177); test: Inhibition of CYP1A2 using recombinant human CYP enzyme at a single time point by LC-MS/MS analysis
T6 sequence (P05177 whole entry): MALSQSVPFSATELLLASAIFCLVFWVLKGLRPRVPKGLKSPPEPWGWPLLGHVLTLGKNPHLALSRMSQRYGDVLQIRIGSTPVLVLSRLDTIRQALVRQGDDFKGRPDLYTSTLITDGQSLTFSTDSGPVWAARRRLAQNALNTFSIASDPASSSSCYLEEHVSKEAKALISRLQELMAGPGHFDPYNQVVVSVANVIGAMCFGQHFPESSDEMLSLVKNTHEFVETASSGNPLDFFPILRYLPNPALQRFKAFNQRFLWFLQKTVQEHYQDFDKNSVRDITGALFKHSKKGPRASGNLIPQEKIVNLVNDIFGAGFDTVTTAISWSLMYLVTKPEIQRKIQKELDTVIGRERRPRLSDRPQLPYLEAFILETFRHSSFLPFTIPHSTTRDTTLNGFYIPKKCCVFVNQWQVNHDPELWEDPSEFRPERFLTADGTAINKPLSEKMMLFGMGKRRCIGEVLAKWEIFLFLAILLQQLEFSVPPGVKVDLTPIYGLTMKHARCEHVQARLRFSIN

[12] = target: Cytochrome P450 2D6 (Homo sapiens, UniProt P10635); test: Inhibition of CYP2D6 using recombinant human CYP enzyme at a single time point by LC-MS/MS analysis
Cytochrome P450 2D6, sequence (P10635 whole entry): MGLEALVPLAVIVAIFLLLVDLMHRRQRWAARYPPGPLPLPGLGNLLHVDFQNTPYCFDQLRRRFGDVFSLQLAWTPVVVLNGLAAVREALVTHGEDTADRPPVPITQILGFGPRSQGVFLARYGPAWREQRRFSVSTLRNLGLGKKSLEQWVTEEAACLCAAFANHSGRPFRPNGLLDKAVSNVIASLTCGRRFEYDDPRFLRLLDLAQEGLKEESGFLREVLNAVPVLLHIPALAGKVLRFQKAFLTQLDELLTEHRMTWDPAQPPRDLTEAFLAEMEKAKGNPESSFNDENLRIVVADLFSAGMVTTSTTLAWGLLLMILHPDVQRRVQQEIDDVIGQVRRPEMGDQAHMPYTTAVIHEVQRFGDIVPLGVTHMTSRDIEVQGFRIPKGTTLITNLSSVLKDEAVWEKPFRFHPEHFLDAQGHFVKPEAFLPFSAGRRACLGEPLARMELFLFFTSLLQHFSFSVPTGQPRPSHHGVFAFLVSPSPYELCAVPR

[13] = target: Cytochrome P450 3A4 (Homo sapiens, UniProt P08684); test: Inhibition of CYP3A4 using recombinant human CYP enzyme at a single time point by LC-MS/MS analysis
Cytochrome P450 3A4, sequence (P08684 whole entry): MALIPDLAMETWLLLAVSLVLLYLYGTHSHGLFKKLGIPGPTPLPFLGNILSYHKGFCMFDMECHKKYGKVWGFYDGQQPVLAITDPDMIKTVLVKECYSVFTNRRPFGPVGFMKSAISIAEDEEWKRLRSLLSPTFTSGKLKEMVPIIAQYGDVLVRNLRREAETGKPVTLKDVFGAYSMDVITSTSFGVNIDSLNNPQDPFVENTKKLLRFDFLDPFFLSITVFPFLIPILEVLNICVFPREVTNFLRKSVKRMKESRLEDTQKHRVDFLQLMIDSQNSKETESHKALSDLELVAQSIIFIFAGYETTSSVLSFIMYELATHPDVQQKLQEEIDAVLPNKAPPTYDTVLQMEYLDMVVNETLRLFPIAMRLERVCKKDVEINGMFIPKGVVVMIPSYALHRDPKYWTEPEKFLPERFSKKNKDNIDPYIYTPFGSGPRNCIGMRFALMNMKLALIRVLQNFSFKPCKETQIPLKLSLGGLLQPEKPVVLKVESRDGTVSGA

Row | Compound | half-life [1] [min] | inhibition at 0.5 µM [2] [%] | inhibition [3] [%] | inhibition [4] [%] | inhibition at 2 µM [5] [%] | IC50 [6] [µM] | IC50 [7] [µM] | IC50 [8] [µM] | microsomal CLint [9] [µL/min/mg] | IC50 [10] [µM] | IC50 [11] [µM] | IC50 [12] [µM] | IC50 [13] [µM]
1 | O=C1CCc2cc(-c3cccnc3)cc3c2N1CC3 | 9 |  |  |  |  |  |  |  |  |  |  |  | 
2 | CCC(=O)N1CCc2cc(-c3cccnc3)ccc21 |  | < 7 | 0.8 | 66 | < 7 |  |  |  |  |  |  |  | 
3 | O=C(CCCl)N1CCc2cc(-c3cccnc3)ccc21 |  |  | 6 | 7 |  | > 5 | > 5 |  |  |  |  |  | 
4 | COc1ccc(C(=O)N2CCc3cc(-c4cccnc4)ccc32)cc1 |  |  | 1.6 | 26 |  |  | > 5 |  |  |  |  |  | 
5 | O=C(Cc1ccccc1)N1CCc2cc(-c3cccnc3)ccc21 |  |  | 26 | 2.2 |  | > 5 | 1.52 |  |  |  |  |  | 
6 | CCC(=O)N1CCc2cc(-c3cncc4ccccc34)ccc21 | 15 | < 7 | 39 | 100 | < 7 |  |  | > 50 | 91 | > 50 | > 50 | > 50 | > 50
7 | O=C(C1CC1)N1CCc2cc(-c3cncc4ccccc34)ccc21 |  | < 7 | 29 | 98 | < 7 | 0.03 | 3.72 |  |  |  |  |  | 
8 | CC(C)C(=O)N1CCc2cc(-c3cncc4ccccc34)ccc21 |  | < 7 | 11 | 90 | < 7 | 0.152 | 6.09 |  |  |  |  |  | 
9 | CC(=O)N1CCc2cc(-c3cncc(F)c3)ccc21 |  | < 7 | 11 | 93 | < 7 | 0.061 | 6.81 |  |  |  |  |  | 
10 | COc1cncc(-c2ccc3c(c2)CCN3C(C)=O)c1 |  | < 7 | 48 | 100 | < 7 |  |  |  |  |  |  |  | 
11 | CC(=O)N1CCc2cc(-c3cnccc3C)ccc21 | 17 | < 7 | 70 | 100 | < 7 |  |  | > 50 | 81 | > 50 | > 50 | > 50 | > 50
12 | CC(=O)n1ccc2cc(-c3cccnc3)ccc21 |  | < 7 | 25 | 98 | < 7 |  |  |  |  |  |  |  | 
